Measured values taken from paper PMC10970644, “Molecular Pharmacology of Gelsemium Alkaloids on Inhibitory Receptors” (International Journal of Molecular Sciences, 2024).
Numbering of substitutions follows the chain as printed. Read-outs that look alike come from different tables or passages of the source.

Tests used:
α3β GlyR = molecular target: T1, α3β GlyR (Rattus norvegicus, UniProt P20781+P24524); experiment: cell-based; format: cell-based
T1 construct: The cells were transfected with plasmids encoding the following proteins; expressed in transfected cells; host or cells: HEK293 (ATCC CRL-1573)
Experimental: (§1) The cells were transfected with plasmids encoding the following proteins: (i). rat GlyR α (1, 2, 3) subunits alone or combined with rat β subunits (Uniprot Accession Numbers: Q546L7, P22771, P20236, P20781); and (ii). rat GABAAR α1 combined with rat β2 and γ2 subunits (Uniprot Accession Numbers: P62813, P63138, P18508). The EGFP expression was used as a marker of successful protein expression. The transfection was performed using Lipofectamine 2000 (Invitrogen, ThermoFisher, Carlsbad, CA, USA) using the fabricant protocol. The plasmids used to express GlyRs and GABAARs have been previously described. To track the successful expression of GlyR β subunits and the GABAA γ2 or β2 subunit, these proteins were subcloned in the pIRES2-EGFP vector. The transfection ratio to obtain β-containing GlyRs was 1:5 of α:β, while the expression of γ2-containing GABAA receptors was 1:2:5 of α:β:γ2 [14, 15]. Chimeric GlyRs were described in a previous report. Site directed mutagenesis was performed by Charm Gene Science Mutagenex LLC. (Cumming, GA, USA). All the constructs were checked by full-length sequencing (SNPSaurus, Eugene, OR, USA).
In brief, patch electrodes (3–4 MΩ) were pulled from borosilicate glasses in a PC-100 puller (Narishige, Tokyo, Japan); then, they were filled with an intracellular solution, which contained (in mM) 120 CsCl, 8 EGTA, 10 HEPES (pH 7.4), 4 MgCl2, 0.5 GTP, and 2 ATP. The extracellular solution contained (in mM) 140 NaCl, 5.4 KCl, 2.0 CaCl2, 1.0 MgCl2, 10 HEPES (pH 7.4), and 10 glucose. Whole-cell patch-clamp recordings were performed at −60 mV with an Axoclamp 200B (Molecular Devices, Sunnyvale, CA, USA) or with HEKA EPC-10 (HEKA Elektronik GmbH, Reutlingen, Germany) amplifiers. […] Brief (3–5 s) pulses of agonist together with alkaloids were applied to cells. Stock solutions of the alkaloids were prepared in high purity distilled water. Aliquots of these stock solutions were diluted in reservoirs containing extracellular solution. […] The concentration–response curve parameters for the alkaloid inhibition (IC50, nH, and the maximal current inhibition) were obtained from the fitted curve of normalized concentration–response data points to the equation Iagonist = Imax (agonist)nH/((agonist)nH + (EC50)nH). The IC50 curves are best-fit mean ± SE from pooled data. […] The concentration of agonist corresponds to the sub-saturating agonist concentration used to obtain the IC50 for each alkaloid on a given GlyR subtype.

α1GlyR F63A = molecular target: T2, α1GlyR F63A (Rattus norvegicus, UniProt P07727, F91A); format: cell-based
T2 construct: expressed in transfected cells; host or cells: HEK293 (ATCC CRL-1573)
T2 sequence (P07727 29-457 F91A): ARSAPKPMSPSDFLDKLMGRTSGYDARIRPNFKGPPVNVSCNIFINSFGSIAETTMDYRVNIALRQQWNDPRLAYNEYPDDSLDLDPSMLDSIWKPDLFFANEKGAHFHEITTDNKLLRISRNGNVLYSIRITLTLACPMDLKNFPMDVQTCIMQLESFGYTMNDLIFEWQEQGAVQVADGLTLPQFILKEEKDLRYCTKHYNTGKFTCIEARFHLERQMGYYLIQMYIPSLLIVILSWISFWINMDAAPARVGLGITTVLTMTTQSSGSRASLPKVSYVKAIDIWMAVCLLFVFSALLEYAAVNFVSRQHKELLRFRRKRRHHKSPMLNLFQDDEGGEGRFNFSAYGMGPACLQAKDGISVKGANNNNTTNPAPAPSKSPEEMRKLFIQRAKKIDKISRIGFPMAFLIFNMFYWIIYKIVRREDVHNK
Experimental: as §1
(§2) In brief, patch electrodes (3–4 MΩ) were pulled from borosilicate glasses in a PC-100 puller (Narishige, Tokyo, Japan); then, they were filled with an intracellular solution, which contained (in mM) 120 CsCl, 8 EGTA, 10 HEPES (pH 7.4), 4 MgCl2, 0.5 GTP, and 2 ATP. The extracellular solution contained (in mM) 140 NaCl, 5.4 KCl, 2.0 CaCl2, 1.0 MgCl2, 10 HEPES (pH 7.4), and 10 glucose. Whole-cell patch-clamp recordings were performed at −60 mV with an Axoclamp 200B (Molecular Devices, Sunnyvale, CA, USA) or with HEKA EPC-10 (HEKA Elektronik GmbH, Reutlingen, Germany) amplifiers. […] Brief (3–5 s) pulses of agonist together with alkaloids were applied to cells. Stock solutions of the alkaloids were prepared in high purity distilled water. Aliquots of these stock solutions were diluted in reservoirs containing extracellular solution. […] The concentration–response curve parameters for the alkaloid inhibition (IC50, nH, and the maximal current inhibition) were obtained from the fitted curve of normalized concentration–response data points to the equation Iagonist = Imax (agonist)nH/((agonist)nH + (EC50)nH). The IC50 curves are best-fit mean ± SE from pooled data. […] The inhibition constant (Ki) was calculated using the Cheng–Prusoff equation (Ki = IC50/((2 + ([Agonist]/EC50)^nH)^1/nH − 1). The concentration of agonist corresponds to the sub-saturating agonist concentration used to obtain the IC50 for each alkaloid on a given GlyR subtype.

α1GlyR G160E = molecular target: T3, α1GlyR G160E (Rattus norvegicus, UniProt P07727, G188E); format: cell-based
T3 construct: expressed in transfected cells; host or cells: HEK293 (ATCC CRL-1573)
T3 sequence (P07727 29-457 G188E): T2 sequence (P07727 29-457 F91A) with A63F, G160E
Experimental: as §1, §2

[1] = system: recombinant and native GABAARs; details: cited from earlier work
native GlyRs = details: cited from earlier work

T1 sequence (P24524 34-464): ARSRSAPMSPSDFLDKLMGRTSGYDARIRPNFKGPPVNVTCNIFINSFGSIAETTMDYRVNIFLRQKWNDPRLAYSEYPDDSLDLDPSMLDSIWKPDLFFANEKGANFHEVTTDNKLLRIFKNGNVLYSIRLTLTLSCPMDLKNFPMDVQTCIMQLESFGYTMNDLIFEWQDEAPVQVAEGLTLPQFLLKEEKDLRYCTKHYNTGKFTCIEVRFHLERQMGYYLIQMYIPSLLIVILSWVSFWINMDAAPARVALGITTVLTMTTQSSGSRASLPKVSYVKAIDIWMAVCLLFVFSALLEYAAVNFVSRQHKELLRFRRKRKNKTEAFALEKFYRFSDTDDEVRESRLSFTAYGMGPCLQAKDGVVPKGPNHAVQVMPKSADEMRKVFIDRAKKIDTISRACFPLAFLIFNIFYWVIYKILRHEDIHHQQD
T1 sequence (P20781 23-496): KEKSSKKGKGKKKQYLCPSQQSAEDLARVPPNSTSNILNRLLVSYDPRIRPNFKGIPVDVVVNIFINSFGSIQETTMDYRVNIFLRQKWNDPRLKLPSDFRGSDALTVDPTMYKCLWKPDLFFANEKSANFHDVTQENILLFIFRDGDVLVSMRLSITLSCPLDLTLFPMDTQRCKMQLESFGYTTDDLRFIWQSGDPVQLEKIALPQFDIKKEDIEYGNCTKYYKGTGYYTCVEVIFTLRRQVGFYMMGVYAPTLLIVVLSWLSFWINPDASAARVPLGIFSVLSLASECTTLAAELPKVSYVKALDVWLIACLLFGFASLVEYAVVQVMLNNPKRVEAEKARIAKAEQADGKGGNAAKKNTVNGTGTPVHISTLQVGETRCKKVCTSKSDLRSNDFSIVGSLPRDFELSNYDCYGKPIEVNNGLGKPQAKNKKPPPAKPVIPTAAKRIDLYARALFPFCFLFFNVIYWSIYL

Work on NCC(=O)O [glycine, reference compound] yielded an EC50 (α3β GlyR; read-out: EC50 of agonist) of 243 ± 13 µM.
In the case of C=C[C@@]12CN(C)[C@H]3C[C@]14C(=Nc1ccccc14)[C@H]1C[C@@H]2[C@@H]3CO1 [koumine], the IC50 (α3β GlyR) is reported as 20.2 ± 7.7 µM, the nH (α3β GlyR; Hill coefficient of inhibition curve) is reported as 0.9 ± 0.3 and the Ki (α3β GlyR; calculated using the Cheng–Prussof equation) is reported as 54.1 ± 20 µM. The “alkaloid sensitivity of glycine-evoked currents (in words)” value (“alkaloid sensitivity” for short) (α1GlyR F63A) was “not exert detectable effects” and the “alkaloid sensitivity” value (α1GlyR G160E) was “not exert detectable effects”.
For C=C[C@]12CN(C)[C@@H]3[C@H]4CO[C@H](C[C@H]41)[C@]1(C(=O)Nc4ccccc41)[C@@H]32 [gelsemine], the IC50 [1] is listed as 55 to 75 µM, the “alkaloid sensitivity” value (α1GlyR F63A; F63A, gelsemine 10 μM or 200 μM, 2 mM glycine) is listed as “insensitive” and the “alkaloid sensitivity” value (α1GlyR G160E; G160E, gelsemine 10 μM or 200 μM, 1 mM glycine) is listed as “insensitive”. For the same compound, the IC50 (native GlyRs) was ~40 µM.
